pEC50, pIC50: −log10 of the molar value.
What was measured:
A-431 = experiment: Antiproliferative activity against human A431 cells after 48 hrs by sulforhodamine B assay; type: functional, cell-based; conditions: A-431, 48 h
[1] = Induction of microtubule depolymerization in rat A10 cells after 18 hrs by indirect immunofluorescence assay; type: cell-based
MDA-MB-435 [2] = experiment: Antiproliferative activity against human MDA-MB-435 cells after 48 hrs by sulforhodamine B assay; type: functional, cell-based; conditions: MDA-MB-435, 48 h
HeLa = experiment: Antiproliferative activity against human HeLa cells overexpressing wild type beta3 tubulin after 48 hrs by sulforhodamine B assay; type: functional, cell-based
[3] = Antiproliferative activity against human SKOV3 cells overexpressing wild type beta3 tubulin after 48 hrs by sulforhodamine B assay; type: functional, cell-based; conditions: SK-OV-3, 48 h
[4] = Antiproliferative activity against human SKOV3-MDR1-M6/6 cells overexpressing wild type beta3 tubulin after 48 hrs by sulforhodamine B assay; type: functional, cell-based; conditions: SKOV3-MDR1-M6/6, 48 h
A549 = experiment: Growth inhibition of human A549 cells after 48 hrs by sulforhodamine B assay; type: functional; conditions: A549, 48 h
[5] = Growth inhibition of human EKVX cells after 48 hrs by sulforhodamine B assay; type: functional
HOP-62 = experiment: Growth inhibition of human HOP62 cells after 48 hrs by sulforhodamine B assay; type: functional; conditions: HOP-62, 48 h
[6] = Growth inhibition of human HOP92 cells after 48 hrs by sulforhodamine B assay; type: functional; conditions: HOP-92, 48 h
NCI-H226 = experiment: Growth inhibition of human NCI-H226 cells after 48 hrs by sulforhodamine B assay; type: functional; conditions: NCI-H226, 48 h
NCI-H23 = experiment: Growth inhibition of human NCI-H23 cells after 48 hrs by sulforhodamine B assay; type: functional; conditions: NCI-H23, 48 h
NCI-H460 = experiment: Growth inhibition of human NCI-H460 cells after 48 hrs by sulforhodamine B assay; type: functional; conditions: NCI-H460, 48 h
NCI-H522 = experiment: Growth inhibition of human NCI-H522 cells after 48 hrs by sulforhodamine B assay; type: functional; conditions: NCI-H522, 48 h
SF-268 = experiment: Growth inhibition of human SF268 cells after 48 hrs by sulforhodamine B assay; type: functional; conditions: SF-268, 48 h
[7] = Growth inhibition of human SF295 cells after 48 hrs by sulforhodamine B assay; type: functional; conditions: SF-295, 48 h
SNB-75 = experiment: Growth inhibition of human SNB75 cells after 48 hrs by sulforhodamine B assay; type: functional; conditions: SNB-75, 48 h
U-251 = experiment: Growth inhibition of human U251 cells after 48 hrs by sulforhodamine B assay; type: functional; conditions: U-251, 48 h
IGROV-1 = experiment: Growth inhibition of human IGROV1 cells after 48 hrs by sulforhodamine B assay; type: functional; conditions: IGROV-1, 48 h
[8] = Growth inhibition of human OVCAR3 cells after 48 hrs by sulforhodamine B assay; type: functional; conditions: OVCAR-3, 48 h
[9] = Growth inhibition of human OVCAR4 cells after 48 hrs by sulforhodamine B assay; type: functional; conditions: OVCAR-4, 48 h
[10] = Growth inhibition of human OVCAR5 cells after 48 hrs by sulforhodamine B assay; type: functional; conditions: OVCAR-5, 48 h
[11] = Growth inhibition of human OVCAR8 cells after 48 hrs by sulforhodamine B assay; type: functional; conditions: OVCAR-8, 48 h
NCI/ADR-RES = experiment: Growth inhibition of human NCI/ADR-RES cells after 48 hrs by sulforhodamine B assay; type: functional
SK-OV-3 = experiment: Growth inhibition of human SKOV3 cells after 48 hrs by sulforhodamine B assay; type: functional; conditions: SK-OV-3, 48 h
[12] = Growth inhibition of human LOXIMVI cells after 48 hrs by sulforhodamine B assay; type: functional; conditions: LOX IMVI
M14 = experiment: Growth inhibition of human M14 cells after 48 hrs by sulforhodamine B assay; type: functional; conditions: M14, 48 h
MDA-MB-435 [13] = experiment: Growth inhibition of human MDA-MB-435 cells after 48 hrs by sulforhodamine B assay; type: functional; conditions: MDA-MB-435, 48 h
SK-MEL-28 = experiment: Growth inhibition of human SK-MEL-28 cells after 48 hrs by sulforhodamine B assay; type: functional; conditions: SK-MEL-28, 48 h
786-0 = experiment: Growth inhibition of human 786-0 cells after 48 hrs by sulforhodamine B assay; type: functional; conditions: 786-0, 48 h
A498 = experiment: Growth inhibition of human A498 cells after 48 hrs by sulforhodamine B assay; type: functional; conditions: A498, 48 h
ACHN = experiment: Growth inhibition of human ACHN cells after 48 hrs by sulforhodamine B assay; type: functional
CAKI-1 = experiment: Growth inhibition of human Caki1 cells after 48 hrs by sulforhodamine B assay; type: functional; conditions: CAKI-1, 48 h
[14] = Growth inhibition of human RXF393 cells after 48 hrs by sulforhodamine B assay; type: functional; conditions: RXF 393, 48 h
SN12C = experiment: Growth inhibition of human SN12C cells after 48 hrs by sulforhodamine B assay; type: functional
TK-10 = experiment: Growth inhibition of human TK10 cells after 48 hrs by sulforhodamine B assay; type: functional; conditions: TK-10, 48 h
[15] = Growth inhibition of human UO31 cells after 48 hrs by sulforhodamine B assay; type: functional; conditions: UO-31, 48 h
[16] = Growth inhibition of human HCC2998 cells after 48 hrs by sulforhodamine B assay; type: functional; conditions: HCC 2998, 48 h
[17] = Growth inhibition of human HCT15 cells after 48 hrs by sulforhodamine B assay; type: functional; conditions: HCT-15, 48 h
HT-29 = experiment: Growth inhibition of human HT-29 cells after 48 hrs by sulforhodamine B assay; type: functional; conditions: HT-29, 48 h
KM12 = experiment: Growth inhibition of human KM12 cells after 48 hrs by sulforhodamine B assay; type: functional; conditions: KM12, 48 h
SW-620 = experiment: Growth inhibition of human SW620 cells after 48 hrs by sulforhodamine B assay; type: functional; conditions: SW-620, 48 h
[18] = Growth inhibition of human PC3 cells after 48 hrs by sulforhodamine B assay; type: functional; conditions: PC-3, 48 h
DU-145 = experiment: Growth inhibition of human DU145 cells after 48 hrs by sulforhodamine B assay; type: functional; conditions: DU-145, 48 h
MDA-MB-231 = experiment: Growth inhibition of human MDA-MB-231 cells after 48 hrs by sulforhodamine B assay; type: functional; conditions: MDA-MB-231, 48 h
[19] = Growth inhibition of human BT549 cells after 48 hrs by sulforhodamine B assay; type: functional; conditions: BT-549, 48 h
MDA-MB-468 = experiment: Growth inhibition of human MDA-MB-468 cells after 48 hrs by sulforhodamine B assay; type: functional; conditions: MDA-MB-468, 48 h
CCRF-CEM = experiment: Growth inhibition of human CCRF-CEM cells after 48 hrs by sulforhodamine B assay; type: functional
HL-60(TB) = experiment: Growth inhibition of human HL-60(TB) cells after 48 hrs by sulforhodamine B assay; type: functional; conditions: HL-60, 48 h
[20] = Growth inhibition of human MOLT4 cells after 48 hrs by sulforhodamine B assay; type: functional; conditions: MOLT-4, 48 h
Tubulin (Bos taurus) = Tubulin (Bos taurus) (UniProt Q6B856+Q862L2+Q862F3); experiment: Displacement of [3H]colchicine from bovine brain tubulin assembly at 5 uM

SMILES: COc1ccc2c(c1)CCCN2c1nc(C)nc2oc(C)cc12
- pIC50 (A-431): 7.74
- pEC50 [1]: 7.68
- pIC50 (MDA-MB-435 [2]): 8.01
- pIC50 (HeLa): 8.04
- pIC50 [3]: 7.89
- pIC50 [4]: 7.71
- GI50 (A549): < 10 nM
- GI50 [5]: < 10 nM
- GI50 (HOP-62): < 10 nM
- GI50 [6]: 58.6 nM
- GI50 (NCI-H226): 13 nM
- GI50 (NCI-H23): < 10 nM
- GI50 (NCI-H460): < 10 nM
- GI50 (NCI-H522): < 10 nM
- GI50 (SF-268): 16.8 nM
- GI50 [7]: < 10 nM
- GI50 (SNB-75): < 10 nM
- GI50 (U-251): < 10 nM
- GI50 (IGROV-1): < 10 nM
- GI50 [8]: < 10 nM
- GI50 [9]: 51 nM
- GI50 [10]: 43 nM
- GI50 [11]: < 10 nM
- GI50 (NCI/ADR-RES): < 10 nM
- GI50 (SK-OV-3): < 10 nM
- GI50 [12]: < 10 nM
- GI50 (M14): < 10 nM
- GI50 (MDA-MB-435 [13]): < 10 nM
- GI50 (SK-MEL-28): < 10 nM
- GI50 (786-0): < 10 nM
- GI50 (A498): < 10 nM
- GI50 (ACHN): < 10 nM
- GI50 (CAKI-1): < 10 nM
- GI50 [14]: < 10 nM
- GI50 (SN12C): < 10 nM
- GI50 (TK-10): < 10 nM
- GI50 [15]: < 10 nM
- GI50 [16]: 12 nM
- GI50 [17]: < 10 nM
- GI50 (HT-29): < 10 nM
- GI50 (KM12): < 10 nM
- GI50 (SW-620): < 10 nM
- GI50 [18]: < 10 nM
- GI50 (DU-145): < 10 nM
- GI50 (MDA-MB-231): 11.4 nM
- GI50 [19]: < 10 nM
- GI50 (MDA-MB-468): < 10 nM
- GI50 (CCRF-CEM): < 10 nM
- GI50 (HL-60(TB)): < 10 nM
- GI50 [20]: 15 nM
- inhibition (Tubulin (Bos taurus)): 96%
